Patent US20130303376A1, “METHODS OF IMPROVING PLANT GROWTH” (Bayer CropScience AG, priority 2007, published 2013)
Where “and” joins values, the source holds several entries; their conditions need not be identical. Equal values may be shown once.

Tests used:
Assay type in all cases: in vivo
[1] = system: Solanum lycopersicum ‘Rentita’; experiment: Shoot length test on tomatoes under oxygen deficiency conditions in the nutrient solution; details: 1.0 mg a.i./plant; floating box, nutrient solution not aerated (oxygen deficiency stress); average maximum shoot length after 19 d
Experimental: To prepare a suitable solution of the preparation, 1 part by weight of active substance is mixed with water to give the desired concentration.
(§1) Tomato seeds (Solanum lycopersicum ‘Rentita’) are grown in rock wool. After germination, the rock wool blocks are transferred into a floating box provided with the solution of the preparation and grown on under suitable climatic conditions.
(§2) The nutrient solution of the floating box was not aerated (oxygen deficiency stress).
After the desired period of time, the maximum shoot length per tomato plant is measured, and the average shoot length per floating box and treatment is calculated.

[2] = system: Solanum lycopersicum ‘Rentita’; experiment: Root growth test of tomatoes under oxygen deficiency conditions in the nutrient solution; details: 1.0 mg a.i./plant; floating box, nutrient solution not aerated (oxygen deficiency stress); average maximum root length after 12 d
Experimental: To prepare a suitable solution of the preparation, I part by weight of active substance is mixed with water to give the desired concentration.
as §1, §2
After the desired period of time, the maximum length of the root per tomato plant is measured, and the average root length per floating box and treatment is calculated.

Botrytis cinerea = experiment: Drench application for controlling Botrytis cinerea (grey mould) on tomatoes; parameters: Disease level, replicates 1-9 / Disease level Ø / Disease level and shed leaves: scale not given here; details: tomato; for Disease level Ø / Shed leaves Ø / Disease level, replicates 1-9 / Shed leaves, replicates 1-9 / Disease level and shed leaves: 10 d post-inoculation, drench, all actives 5 d before inoculation; for Disease level Ø / Shed leaves Ø / Disease level, replicates 1-9 / Shed leaves, replicates 1-9: I-34/I-7 10 mg a.i./plant, fluopyram 20 mg a.i./plant; for Disease level Ø / Shed leaves Ø: mean of 9; for Disease level, replicates 1-9 / Shed leaves, replicates 1-9: single replicates; for Disease level and shed leaves: sum of the two Ø
Experimental: To control Botrytis cinerea (grey mould) on tomatoes, tomato plants which had been grown in peaty soil were treated with the compounds I-34 or I-7 alone or in combination with the fungicide fluopyram (drench application) 5 or 10 days before being inoculated with Botrvtis cinerea. [table] The inoculation with Botrytis cinerea was carried out at the stated points in time (5 or 10 days after drench application of compound I-34, I-7 and/or fluopyram). Inoculation density: 15 000 spores/ml, approx. 33 ml of spore suspension/plant. The disease level of the plants was evaluated 10 days after the inoculation with Botrytis cinerea.

[3] = system: Triticum aestivum ‘Dekan’; experiment: Root growth test of wheat under oxygen deficiency conditions in the nutrient solution; details: 0.5 mg a.i./plant; floating box, nutrient solution not aerated (oxygen deficiency stress); average maximum root length after 14 d
Experimental: To prepare a suitable solution of the preparation, I part by weight of formulated product is mixed with water to give the desired concentration.
(§3) Wheat kernels (Triticum aestivum ‘Dekan’) are sown in compost and grown under suitable climatic conditions in a floating box provided with the solution of the preparation. The nutrient solution of the floating box was not aerated (oxygen deficiency stress).
After the desired period of time, the maximum length of the root per wheat plant is measured, and the average root length per floating box and treatment is calculated.

[4] = system: Triticum aestivum ‘Dekan’; experiment: Leaf biomass test on wheat under oxygen deficiency conditions in the nutrient solution; details: 0.5 mg a.i./plant, floating box, nutrient solution not aerated (oxygen deficiency stress)
From the text: (§4) To prepare a suitable solution of the preparation, 1 part by weight of formulated product is mixed with water to give the desired concentration.
as §3, with “‘Dekan’) or tomato seeds (Solanum lycopersicum ‘Rentita’)” for “‘Dekan’)”
(§5) After the desired period of time, the leaf biomass per wheat or tomato plant is measured, and the average weight per floating box and treatment is calculated.

[5] = system: Solanum lycopersicum ‘Rentita’; experiment: Leaf biomass test on tomatoes under oxygen deficiency conditions in the nutrient solution; details: 1.0 mg a.i./plant, floating box, nutrient solution not aerated (oxygen deficiency stress)
From the text: as §4
as §3, with “‘Dekan’) or tomato seeds (Solanum lycopersicum ‘Rentita’)” for “‘Dekan’)”
as §5

| Structure (SMILES) | Shoot length of tomatoes: Length in cm after 19 d [1] | Root growth of tomatoes: Length in cm after 12 d [2] | Disease level Ø (Botrytis cinerea) | Shed leaves Ø (Botrytis cinerea) | Disease level, replicates 1-9 (Botrytis cinerea) | Shed leaves, replicates 1-9 (Botrytis cinerea) | Disease level and shed leaves (Botrytis cinerea) | other results |
| --- | --- | --- | --- | --- | --- | --- | --- | --- |
| O=C1C=C(N(CCF)Cc2ccc(Cl)nc2)CO1 [Compound (I-6), 4-{[(6-chloropyrid-3-yl)methyl](2-fluoroethyl)amino}furan-2(5H)-one] | 7.33 cm | 11.08 cm | – | – | – | – | – | – |
| O=C1C=C(N(Cc2ccc(Cl)nc2)CC(F)F)CO1 [Compound (I-7), 4-{[(6-chloropyrid-3-yl)methyl](2,2-difluoroethyl)amino}furan-2(5H)-one] | 7.15 cm | 8.67 cm | 3 | 3 | 3 (6×) and 2 and 4 and 5 | 5 (3×) and 6 and 3 (2×) and 4 and 2 and 1 | 68 | Root growth of wheat: Length in cm after 14 d [3]: 22.1 cm; Leaf biomass of wheat: Weight in g after 22 d [4]: 15.7 g; Leaf biomass of tomato: Weight in g after 21 d [5]: 19.4 g |
| CN(Cc1cnc(Cl)c(F)c1)C1=CC(=O)OC1 [Compound (I-8), 4-{[(6-chloro-5-fluoropyrid-3-yl)methyl](methyl)amino}furan-2(5H)-one] | 6.6 cm | 7.43 cm | – | – | – | – | – | – |
| O=C1C=C(N(CCF)Cc2cnc(Cl)c(Cl)c2)CO1 [Compound (I-14), 4-{[(5,6-dichloropyrid-3-yl)methyl](2-fluoroethyl)amino}furan-2(5H)-one] | – | 6.97 cm | – | – | – | – | – | – |
| CN(Cc1ccc(Cl)nc1)C1=CC(=O)CC1 [Compound (I-18), 3-{[(6-chloropyrid-3-yl)methyl](methyl)amino}cyclopent-2-en-1-one] | – | 7.56 cm | – | – | – | – | – | – |
| CC1OC(=O)C=C1N(C)Cc1ccc(Cl)nc1 (stereo not drawn) [Compound (I-25), 4-{[(6-chloropyrid-3-yl)methyl](methyl)amino}-5-methylfuran-2(5H)-one] | 6.8 cm | 9.19 cm | – | – | – | – | – | – |
| O=C1C=C(N(Cc2ccc(Cl)nc2)C2CC2)CO1 [Compound (I-31), 4-{[(6-chloropyrid-3-yl)methyl](cyclopropyl)amino}furan-2(5H)-one] | 6.78 cm | 11.16 cm | – | – | – | – | – | – |
| CN(Cc1ccc(Cl)nc1)C1=CC(=O)OC1 [Compound (I-34), 4-{[(6-chloropyrid-3-yl)methyl](methyl)amino}furan-2(5H)-one] | 6.75 cm | 9.53 cm | 3 | 3 | 5 and 2 (4×) and 3 (2×) and 4 (2×) | 3 (3×) and 0 and 4 (3×) and 5 and 2 | 61 | – |
| O=C(NCCc1ncc(C(F)(F)F)cc1Cl)c1ccccc1C(F)(F)F [Fluopyram, fluopyram, reference compound] | – | – | 1 | 0 | 5 (3×) and 2 and 1 (3×) and 3 (2×) | 0 | 11 | Appearance of infected leaf tissue (symptoms of the disease) (Botrytis cinerea; 10 d post-inoculation with Botrytis cinerea, FIGS. 4-6, in words): remains dark and wet |
